Assay results from ChEMBL document CHEMBL5715956, “Selective Targeting of Bromodomains of the Bromodomain-PHD Fingers Family Impairs Osteoclast Differentiation” (ACS Chem Biol, 2017).

Tests used:
[1] = molecular target: T1, Peregrin (Homo sapiens) (UniProt P55201); assay: Binding affinity to […] (unknown origin) assessed as change in entropy TdeltaS at 17 uM by Isothermal titration calorimetry
T1 sequence (whole entry): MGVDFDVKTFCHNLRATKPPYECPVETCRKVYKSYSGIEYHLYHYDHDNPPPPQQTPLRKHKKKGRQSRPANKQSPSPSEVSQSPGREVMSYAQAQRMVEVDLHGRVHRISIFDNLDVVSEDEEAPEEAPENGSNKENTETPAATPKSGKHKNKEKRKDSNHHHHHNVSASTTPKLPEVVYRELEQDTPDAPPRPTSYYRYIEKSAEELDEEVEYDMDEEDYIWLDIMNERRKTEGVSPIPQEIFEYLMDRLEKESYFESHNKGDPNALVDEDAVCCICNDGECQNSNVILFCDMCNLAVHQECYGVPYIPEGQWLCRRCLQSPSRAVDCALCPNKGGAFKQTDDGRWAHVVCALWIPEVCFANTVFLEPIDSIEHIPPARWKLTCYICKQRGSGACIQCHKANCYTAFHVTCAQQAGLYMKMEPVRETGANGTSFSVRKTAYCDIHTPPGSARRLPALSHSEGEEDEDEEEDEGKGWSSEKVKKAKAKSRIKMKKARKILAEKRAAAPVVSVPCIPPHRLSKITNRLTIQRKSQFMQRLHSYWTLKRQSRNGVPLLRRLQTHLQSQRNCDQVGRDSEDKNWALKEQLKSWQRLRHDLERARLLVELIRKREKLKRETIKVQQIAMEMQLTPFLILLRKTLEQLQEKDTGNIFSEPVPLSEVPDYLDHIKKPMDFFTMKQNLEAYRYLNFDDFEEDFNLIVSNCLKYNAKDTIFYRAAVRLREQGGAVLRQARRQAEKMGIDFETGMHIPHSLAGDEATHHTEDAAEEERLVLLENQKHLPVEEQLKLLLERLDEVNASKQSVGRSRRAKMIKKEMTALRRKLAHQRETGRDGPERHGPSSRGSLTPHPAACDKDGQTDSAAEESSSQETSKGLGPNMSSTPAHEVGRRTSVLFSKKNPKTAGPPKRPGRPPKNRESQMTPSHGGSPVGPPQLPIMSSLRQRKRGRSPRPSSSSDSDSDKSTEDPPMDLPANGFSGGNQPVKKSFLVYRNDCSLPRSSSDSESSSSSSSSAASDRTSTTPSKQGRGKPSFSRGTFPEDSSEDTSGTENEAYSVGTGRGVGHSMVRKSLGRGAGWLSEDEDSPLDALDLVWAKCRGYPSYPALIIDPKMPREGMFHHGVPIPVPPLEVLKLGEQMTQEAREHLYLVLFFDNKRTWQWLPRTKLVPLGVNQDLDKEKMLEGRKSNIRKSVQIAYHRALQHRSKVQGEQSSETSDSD

[2] = molecular target: Protein polybromo-1 (Homo sapiens) (UniProt Q86U86); settings: dose 10.0 µM
Chain of Protein polybromo-1 (Homo sapiens) (Q86U86 whole entry): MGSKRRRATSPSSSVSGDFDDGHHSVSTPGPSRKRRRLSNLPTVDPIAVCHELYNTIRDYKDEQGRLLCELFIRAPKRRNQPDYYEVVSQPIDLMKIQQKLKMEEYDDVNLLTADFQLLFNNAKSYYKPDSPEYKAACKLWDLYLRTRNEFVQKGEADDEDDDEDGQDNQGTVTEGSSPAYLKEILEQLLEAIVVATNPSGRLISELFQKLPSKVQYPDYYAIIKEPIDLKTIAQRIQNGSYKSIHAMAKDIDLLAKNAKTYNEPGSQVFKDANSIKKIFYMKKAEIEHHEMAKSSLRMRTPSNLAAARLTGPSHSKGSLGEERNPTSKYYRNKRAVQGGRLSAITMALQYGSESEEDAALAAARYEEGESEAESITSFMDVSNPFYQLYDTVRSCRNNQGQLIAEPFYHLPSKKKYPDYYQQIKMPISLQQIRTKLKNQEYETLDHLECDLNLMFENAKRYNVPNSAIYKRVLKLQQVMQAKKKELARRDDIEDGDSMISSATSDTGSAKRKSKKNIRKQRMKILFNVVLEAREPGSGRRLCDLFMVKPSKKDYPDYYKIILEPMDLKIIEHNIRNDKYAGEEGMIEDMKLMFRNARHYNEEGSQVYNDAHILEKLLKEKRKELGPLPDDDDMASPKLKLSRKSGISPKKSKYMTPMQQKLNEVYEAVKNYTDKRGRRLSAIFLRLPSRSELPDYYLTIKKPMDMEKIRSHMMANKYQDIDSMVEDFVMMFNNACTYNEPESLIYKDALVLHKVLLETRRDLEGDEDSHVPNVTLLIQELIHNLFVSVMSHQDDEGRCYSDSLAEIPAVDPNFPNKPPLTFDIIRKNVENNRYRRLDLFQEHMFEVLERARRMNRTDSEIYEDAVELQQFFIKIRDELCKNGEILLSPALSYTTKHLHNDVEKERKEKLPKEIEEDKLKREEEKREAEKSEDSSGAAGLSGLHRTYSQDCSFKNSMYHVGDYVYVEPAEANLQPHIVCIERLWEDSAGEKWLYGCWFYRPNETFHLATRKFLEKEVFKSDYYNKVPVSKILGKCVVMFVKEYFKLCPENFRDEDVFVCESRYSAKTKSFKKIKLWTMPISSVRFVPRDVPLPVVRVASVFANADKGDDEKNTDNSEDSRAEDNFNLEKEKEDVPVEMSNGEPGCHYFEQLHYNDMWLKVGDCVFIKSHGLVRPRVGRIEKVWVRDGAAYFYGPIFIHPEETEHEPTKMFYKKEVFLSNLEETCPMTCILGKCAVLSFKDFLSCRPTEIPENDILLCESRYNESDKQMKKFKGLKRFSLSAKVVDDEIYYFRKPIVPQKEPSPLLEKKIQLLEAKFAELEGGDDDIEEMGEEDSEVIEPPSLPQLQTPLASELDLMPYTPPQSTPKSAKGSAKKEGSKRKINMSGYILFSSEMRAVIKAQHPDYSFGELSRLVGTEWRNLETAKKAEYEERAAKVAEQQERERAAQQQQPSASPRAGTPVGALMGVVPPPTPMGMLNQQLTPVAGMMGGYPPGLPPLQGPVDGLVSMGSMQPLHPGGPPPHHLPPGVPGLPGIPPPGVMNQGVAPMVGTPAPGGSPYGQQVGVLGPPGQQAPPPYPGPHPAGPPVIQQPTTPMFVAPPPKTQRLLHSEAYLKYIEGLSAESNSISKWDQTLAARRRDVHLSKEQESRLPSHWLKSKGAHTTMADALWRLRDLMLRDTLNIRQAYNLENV

[3] = species: Homo sapiens; settings: dose 10.0 µM
[4] = molecular target: Transcription initiation factor TFIID subunit 1 (Homo sapiens) (UniProt P21675); settings: dose 10.0 µM
[5] = molecular target: Transcription intermediary factor 1-alpha (Homo sapiens) (UniProt O15164); settings: dose 10.0 µM
Chain of Transcription intermediary factor 1-alpha (Homo sapiens) (O15164 whole entry): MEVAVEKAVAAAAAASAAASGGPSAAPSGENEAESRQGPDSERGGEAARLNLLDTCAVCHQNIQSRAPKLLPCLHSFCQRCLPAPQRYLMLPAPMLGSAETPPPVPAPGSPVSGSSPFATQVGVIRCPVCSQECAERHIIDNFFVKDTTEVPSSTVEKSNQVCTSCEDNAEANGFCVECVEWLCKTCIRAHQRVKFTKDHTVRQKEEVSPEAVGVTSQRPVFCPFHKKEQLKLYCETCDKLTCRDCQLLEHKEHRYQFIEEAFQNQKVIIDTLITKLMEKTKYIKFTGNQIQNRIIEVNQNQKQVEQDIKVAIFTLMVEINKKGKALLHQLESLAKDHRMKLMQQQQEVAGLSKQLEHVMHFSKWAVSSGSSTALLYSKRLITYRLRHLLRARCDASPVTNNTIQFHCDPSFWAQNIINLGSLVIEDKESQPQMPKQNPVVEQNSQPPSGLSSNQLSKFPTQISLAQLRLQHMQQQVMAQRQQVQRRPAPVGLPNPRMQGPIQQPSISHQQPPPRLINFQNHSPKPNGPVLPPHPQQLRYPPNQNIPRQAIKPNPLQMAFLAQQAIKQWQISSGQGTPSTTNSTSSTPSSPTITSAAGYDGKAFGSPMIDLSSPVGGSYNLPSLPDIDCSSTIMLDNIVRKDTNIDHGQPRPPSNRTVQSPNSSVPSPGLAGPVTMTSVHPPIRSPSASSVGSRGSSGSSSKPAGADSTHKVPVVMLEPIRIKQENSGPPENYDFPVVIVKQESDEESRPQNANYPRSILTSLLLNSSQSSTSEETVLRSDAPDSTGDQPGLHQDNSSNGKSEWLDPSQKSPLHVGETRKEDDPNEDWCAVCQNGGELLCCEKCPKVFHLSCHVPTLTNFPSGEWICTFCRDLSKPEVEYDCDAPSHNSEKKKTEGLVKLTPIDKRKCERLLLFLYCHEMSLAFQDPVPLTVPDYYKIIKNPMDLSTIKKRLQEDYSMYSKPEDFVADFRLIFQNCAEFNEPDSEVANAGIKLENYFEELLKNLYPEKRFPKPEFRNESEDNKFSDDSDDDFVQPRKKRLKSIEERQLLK

[6] = molecular target: T2, Bromodomain and PHD finger-containing protein 3 (Homo sapiens) (UniProt Q9ULD4); assay: Binding affinity to BRPF3 (unknown origin) assessed as change in entropy TdeltaS at 12 uM by Isothermal titration calorimetry
T2 sequence (whole entry): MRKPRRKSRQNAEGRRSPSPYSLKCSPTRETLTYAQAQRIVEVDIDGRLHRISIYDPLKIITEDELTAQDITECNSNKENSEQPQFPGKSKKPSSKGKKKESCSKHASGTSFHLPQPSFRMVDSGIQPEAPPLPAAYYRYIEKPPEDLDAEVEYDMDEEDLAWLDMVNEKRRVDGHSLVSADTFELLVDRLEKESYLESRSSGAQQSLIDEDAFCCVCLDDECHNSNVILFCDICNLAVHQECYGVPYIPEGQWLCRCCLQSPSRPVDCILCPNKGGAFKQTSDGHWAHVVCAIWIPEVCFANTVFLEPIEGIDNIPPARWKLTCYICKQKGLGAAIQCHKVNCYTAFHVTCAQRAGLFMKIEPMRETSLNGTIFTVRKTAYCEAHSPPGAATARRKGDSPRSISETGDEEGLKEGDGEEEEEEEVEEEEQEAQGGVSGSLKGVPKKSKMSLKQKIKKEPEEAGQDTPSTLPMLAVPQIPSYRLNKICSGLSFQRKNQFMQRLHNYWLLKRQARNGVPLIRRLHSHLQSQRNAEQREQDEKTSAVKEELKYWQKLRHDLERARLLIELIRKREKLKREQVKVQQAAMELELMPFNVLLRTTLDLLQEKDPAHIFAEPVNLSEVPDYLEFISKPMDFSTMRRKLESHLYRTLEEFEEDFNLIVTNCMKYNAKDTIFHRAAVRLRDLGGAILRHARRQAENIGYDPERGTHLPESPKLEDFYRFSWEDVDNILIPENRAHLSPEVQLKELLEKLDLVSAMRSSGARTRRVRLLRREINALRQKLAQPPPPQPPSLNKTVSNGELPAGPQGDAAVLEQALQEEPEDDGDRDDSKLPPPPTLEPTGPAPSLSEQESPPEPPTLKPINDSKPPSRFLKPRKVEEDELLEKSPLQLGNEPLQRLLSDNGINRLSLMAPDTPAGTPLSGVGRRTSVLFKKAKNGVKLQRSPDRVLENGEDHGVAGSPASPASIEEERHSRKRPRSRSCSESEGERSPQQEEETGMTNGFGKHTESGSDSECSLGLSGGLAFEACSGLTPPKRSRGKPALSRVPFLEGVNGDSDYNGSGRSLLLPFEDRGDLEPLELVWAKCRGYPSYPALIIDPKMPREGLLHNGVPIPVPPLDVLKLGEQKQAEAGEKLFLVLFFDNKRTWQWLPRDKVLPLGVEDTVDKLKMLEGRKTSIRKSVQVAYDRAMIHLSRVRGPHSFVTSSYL

[7] = molecular target: Protein polybromo-1 (Homo sapiens) (UniProt Q86U86); settings: dose 10.0 µM; remark: listed apart in the source
[8] = molecular target: T1, Peregrin (Homo sapiens); assay: Binding affinity to […] (unknown origin) assessed as change in entropy at 17 uM by Isothermal titration calorimetry
[9] = molecular target: Protein polybromo-1 (Homo sapiens) (UniProt Q86U86); settings: dose 10.0 µM; remark: listed apart in the source
[10] = species: Homo sapiens; settings: dose 10.0 µM; remark: listed apart in the source
[11] = molecular target: ATPase family AAA domain-containing protein 2B (Homo sapiens) (UniProt Q9ULI0); settings: dose 10.0 µM
Chain of ATPase family AAA domain-containing protein 2B (Homo sapiens) (Q9ULI0 whole entry, the tested form may be a part): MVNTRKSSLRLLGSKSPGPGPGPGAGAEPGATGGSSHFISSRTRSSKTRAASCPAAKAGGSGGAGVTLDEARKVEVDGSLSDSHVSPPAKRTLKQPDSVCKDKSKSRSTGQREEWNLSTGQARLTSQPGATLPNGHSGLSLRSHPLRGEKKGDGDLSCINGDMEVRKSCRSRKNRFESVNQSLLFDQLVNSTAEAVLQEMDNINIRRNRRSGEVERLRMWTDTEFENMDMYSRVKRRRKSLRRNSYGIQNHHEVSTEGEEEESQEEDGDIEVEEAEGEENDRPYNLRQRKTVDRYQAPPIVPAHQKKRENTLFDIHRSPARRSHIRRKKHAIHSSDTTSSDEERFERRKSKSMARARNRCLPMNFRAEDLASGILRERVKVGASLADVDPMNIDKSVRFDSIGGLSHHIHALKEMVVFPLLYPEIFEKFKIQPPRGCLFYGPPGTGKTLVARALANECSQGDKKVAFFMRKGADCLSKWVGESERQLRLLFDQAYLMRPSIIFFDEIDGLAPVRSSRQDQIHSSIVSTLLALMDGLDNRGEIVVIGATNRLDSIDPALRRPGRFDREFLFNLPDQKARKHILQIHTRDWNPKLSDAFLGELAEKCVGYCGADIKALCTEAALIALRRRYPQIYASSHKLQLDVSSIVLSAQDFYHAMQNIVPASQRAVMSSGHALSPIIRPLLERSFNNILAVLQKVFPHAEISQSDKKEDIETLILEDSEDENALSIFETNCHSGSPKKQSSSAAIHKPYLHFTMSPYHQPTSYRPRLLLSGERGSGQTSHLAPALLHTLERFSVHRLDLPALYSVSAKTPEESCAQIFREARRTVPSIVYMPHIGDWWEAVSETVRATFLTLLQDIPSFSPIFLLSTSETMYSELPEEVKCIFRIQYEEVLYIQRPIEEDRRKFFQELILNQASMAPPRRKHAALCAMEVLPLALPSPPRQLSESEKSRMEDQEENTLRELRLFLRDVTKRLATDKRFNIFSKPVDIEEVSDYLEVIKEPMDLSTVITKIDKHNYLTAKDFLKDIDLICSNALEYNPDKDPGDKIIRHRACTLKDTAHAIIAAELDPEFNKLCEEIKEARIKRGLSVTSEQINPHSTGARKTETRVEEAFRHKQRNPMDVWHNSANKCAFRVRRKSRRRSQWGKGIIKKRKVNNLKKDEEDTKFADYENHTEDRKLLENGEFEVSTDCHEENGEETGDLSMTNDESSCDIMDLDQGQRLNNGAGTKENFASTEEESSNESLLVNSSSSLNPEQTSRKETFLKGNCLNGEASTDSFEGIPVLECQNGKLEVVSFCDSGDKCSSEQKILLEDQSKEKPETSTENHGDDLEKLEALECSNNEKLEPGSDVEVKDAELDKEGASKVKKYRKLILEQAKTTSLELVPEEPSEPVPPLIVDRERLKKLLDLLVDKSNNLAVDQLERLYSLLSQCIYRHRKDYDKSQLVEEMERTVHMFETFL

TdeltaS [1]: -14 kJ/mol
ΔTm [2]: 0.2 °C
ΔTm [3]: 0.5 °C
ΔTm [4]: 0.2 °C
ΔTm [5]: 1.6 °C
TdeltaS [6]: 1.79 kJ/mol
ΔTm [7]: 0.4 °C
deltaS [8]: -0.012 kcal/mol/K
ΔTm [9]: 0.8 °C
ΔTm [10]: 3.3 °C
ΔTm [11]: -0.3 °C
Structure (SMILES): COc1cc2c(cc1NS(=O)(=O)c1ccc(Br)cc1C)n(C)c(=O)n2C
